Patent publication US7259185B2 (priority 2005, dated 2007)
Several values for one entry are separate records, joined by “and”; a condition that tells them apart may be missing. Equal values may be shown once. Entries after “also recorded” stand apart in the source; their conditions may differ. Read-outs that look alike come from different tables or passages of the source.

Experiments:
[1] = pH buffer of pH between 8 and 9, room temperature
From the text: In a more preferred embodiment, pH of about 8 to 9, is provided. For example, a buffer close to a pH of about 8.3 can be used.

[2] = 2 mg/mL in pH 7 phosphate buffer (100 mM), RT
[3] = pH 9 carbonate buffer, after approximately 1 week at 50° C.
[4] = type: physicochemical; details: 6 mg dose, no pepsin, after 24 hours
Experimental: A 250 mL volumetric flask was used to simulate the capacity of stomach gastric volume, and a pH 1.5 HCl buffer (0.8% NaCl, 0.04% CaCl2) was used for the simulated gastric fluid (SGF).

[5] = for Color change: 50° C.
[6] = buffer at pH 7, glycerin increased to 35% by volume
[7] = in vivo; cited from earlier work

For `CC(=O)CC(c1ccccc1)c1c([O-])c2ccccc2oc1=O.[Na+]` (stereo not shown) [warfarin sodium, 4-hydroxy-3-(3-oxo-1-phenylbutyl)-2H-1-benzopyran-2one sodium salt], the precipitation [1] was “free of precipitation for at least one month”, the Warfarin concentration ([2]; time 0.017 hr) was 1.846 mg/mL and the Warfarin concentration ([2]; time 0.083 hr) was 1.819 mg/mL. For the same compound, the Warfarin concentration ([2]; time 0.167 hr) was 1.796 mg/mL, the Warfarin concentration ([2]; time 0.333 hr) was 1.847 mg/mL and the Warfarin concentration ([2]; time 0.5 hr) was 1.844 mg/mL. For the same compound, the Warfarin concentration ([2]; time 1 hr) was 1.8765 mg/mL, the Warfarin concentration ([2]; time 3 hr) was 1.858 mg/mL and the Warfarin concentration ([2]; time 5 hr) was 1.804 mg/mL. The Warfarin concentration ([2]; time 10 hr) was 1.822 mg/mL, the Warfarin concentration ([2]; time 13.5 hr) was 2.0099 mg/mL and the Warfarin concentration ([2]; time 17.25 hr) was 1.97 mg/mL. The Warfarin concentration ([2]; time 48 hr) was 1.113 mg/mL, the Warfarin concentration ([2]; time 192 hr, sodium salt) was 0.357 mg/mL and 0.362 mg/mL and the Color change [3] was “slight yellowing”. For the same compound, the “precipitation of warfarin sodium in SGF” value [4] was “precipitate out of solution”, the Color change ([5]; 1:1 mixture with ethanol, pH 8 buffer) was “No color change” and the Color change ([5]; 1:1 mixture with glycerin, pH 8 buffer) was “No color change”. The “% degradation of warfarin sodium” value ([5]; Phosphate buffer pH 8 alone, 1 month at 50° C.) was 1.4%, the Color change ([5]; Phosphate buffer pH 8 alone) was “Light yellow” and the Color change ([5]; pH 8 buffer with Liquid sugar (50% v/v), sodium salt) was “slight yellow color change”. For the same compound, the “% degradation of warfarin sodium” value ([5]; pH 8 buffer with Liquid sugar (50% v/v), after 312 hr at 50° C.) was 2.4 (after 312 hr) %, the Color change ([5]; pH 8 buffer with Mannitol (5% w/v), sodium salt) was “slight yellow color change; also recorded: Light yellow” and the “% degradation of warfarin sodium” value ([5]; pH 8 buffer with Mannitol (5% w/v), after 384 hr at 50° C.) was 1.9 (after 384 hr) %. For the same compound, the “% degradation of warfarin sodium” value ([5]; pH 8 buffer with Saccharin (0.5% w/v), 1 month at 50° C.) was 3.3%, the Color change ([5]; pH 8 buffer with Saccharin (0.5% w/v), sodium salt) was “slight yellow color change; also recorded: Light yellow” and the “% degradation of warfarin sodium” value ([5]; pH 8 buffer with Sorbitol (50% v/v), 1 month at 50° C.) was 2.9%. For the same compound, the Color change ([5]; pH 8 buffer with Sorbitol (50% v/v), sodium salt) was “slight yellow color change; also recorded: Light yellow”, the “% degradation of warfarin sodium” value ([5]; pH 8 buffer with TWEEN 80 (0.5% v/v), 1 month at 50° C.) was 5.1% and the precipitation of warfarin [6] was “prevents precipitation”.
In the case of `CC(=O)CC(c1ccccc1)c1c(O)c2ccccc2oc1=O` (racemic) [warfarin], the “apparent Vd” value [7] is given as 0.13 L/kg.
